Source: ChEMBL document CHEMBL1201862, “PubChem BioAssay data set” (2004)
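Following 48 hours of exposure in 96-well plates, responses at five concentrations were used to interpolate endpoints linearly. GI50 marks 50% less growth.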 Calls of active or inactive are those of the source. Cut-off read from the data, not from the text of the source: active = GI50 up to about 1.1 µM and inactive = higher.

Columns and labels:
Test in all cases: NCI anticancer screen, dose series, 48 h
MDA-MB-435 = system: MDA-MB-435
SK-MEL-5 = system: SK-MEL-5
SR = system: SR
MCF7 = system: MCF7
KM12 = system: KM12
SNB-75 = system: SNB-75
M14 = system: M14
SN12C = system: SN12C
HOP-92 = system: HOP-92
COLO 205 = system: COLO 205
NCI-H23 = system: NCI-H23
EKVX = system: EKVX
NCI-H460 = system: NCI-H460
ACHN = system: ACHN
U-251 = system: U-251
A498 = system: A498
SNB-19 = system: SNB-19
LOX IMVI = system: LOX IMVI
Hs-578T = system: Hs-578T
NCI/ADR-RES = system: NCI/ADR-RES

Compound: CC(=O)Nc1ccccc1NC1CC(C)N(c2ccccc2)N1C(C)=O (centres undefined)
- GI50 (MDA-MB-435): > 10 µM (inactive)
- GI50 (SK-MEL-5): > 10 µM (inactive)
- GI50 (SR): > 10 µM (inactive)
- GI50 (MCF7): > 10 µM (inactive)
- GI50 (KM12): > 10 µM (inactive)
- GI50 (SNB-75): > 10 µM (inactive)
- GI50 (M14): > 10 µM (inactive)
- GI50 (SN12C): > 10 µM (inactive)
- GI50 (HOP-92): > 10 µM (inactive)
- GI50 (COLO 205): > 10 µM (inactive)
- GI50 (NCI-H23): > 10 µM (inactive)
- GI50 (EKVX): > 10 µM (inactive)

Compound: CCOC(=O)c1ccc(-n2c(SCC)nc3sc(C)c(C)c3c2=O)cc1
- GI50 (NCI-H460): > 100 µM (inactive)
- GI50 (SK-MEL-5): > 100 µM (inactive)
- GI50 (SR): > 100 µM (inactive)
- GI50 (KM12): > 100 µM (inactive)
- GI50 (SNB-75): 36.7 µM (inactive)
- GI50 (M14): > 100 µM (inactive)
- GI50 (ACHN): > 100 µM (inactive)
- GI50 (SN12C): > 100 µM (inactive)
- GI50 (U-251): > 100 µM (inactive)
- GI50 (HOP-92): 50.7 µM (inactive)
- GI50 (A498): 25.2 µM (inactive)
- GI50 (COLO 205): > 100 µM (inactive)
- GI50 (SNB-19): > 100 µM (inactive)
- GI50 (NCI-H23): > 100 µM (inactive)
- GI50 (EKVX): > 100 µM (inactive)
- GI50 (LOX IMVI): > 100 µM (inactive)

Compound: Nc1c(F)c(F)c2c(c1F)N(CCCCCl)c1ccccc1S2
- GI50 (NCI-H460): > 100 µM (inactive)
- GI50 (SK-MEL-5): > 100 µM (inactive)
- GI50 (SR): > 100 µM (inactive)
- GI50 (MCF7): > 100 µM (inactive)
- GI50 (KM12): > 100 µM (inactive)
- GI50 (SNB-75): 74.6 µM (inactive)
- GI50 (M14): > 100 µM (inactive)
- GI50 (Hs-578T): > 100 µM (inactive)
- GI50 (ACHN): > 100 µM (inactive)
- GI50 (SN12C): > 100 µM (inactive)
- GI50 (NCI/ADR-RES): > 100 µM (inactive)
- GI50 (U-251): > 100 µM (inactive)
- GI50 (HOP-92): > 100 µM (inactive)
- GI50 (A498): > 100 µM (inactive)
- GI50 (COLO 205): > 100 µM (inactive)
- GI50 (SNB-19): > 100 µM (inactive)
- GI50 (NCI-H23): > 100 µM (inactive)
- GI50 (LOX IMVI): > 100 µM (inactive)

Compound: Cc1cc(C)c(C(=O)c2no[n+]([O-])c2C(=O)c2c(C)cc(C)c(Br)c2C)c(C)c1Br
- GI50 (NCI-H460): 14.2 µM (inactive)
- GI50 (SR): 4.27 µM (inactive)
- GI50 (KM12): 13.6 µM (inactive)
- GI50 (SNB-75): 9.31 µM (inactive)
- GI50 (M14): 11.8 µM (inactive)
- GI50 (ACHN): 12.6 µM (inactive)
- GI50 (SN12C): 14.2 µM (inactive)
- GI50 (U-251): 12.5 µM (inactive)
- GI50 (HOP-92): 6.19 µM (inactive)
- GI50 (A498): 17.6 µM (inactive)
- GI50 (COLO 205): 16.8 µM (inactive)
- GI50 (SNB-19): 15.7 µM (inactive)
- GI50 (NCI-H23): 11.5 µM (inactive)
- GI50 (EKVX): 12 µM (inactive)

Compound: COc1cc(C2c3cccc4cccc(c34)C3CCC(=O)N32)cc(O)c1O (centres undefined)
- GI50 (NCI-H460): 36.5 µM (inactive)
- GI50 (MDA-MB-435): 19.2 µM (inactive)
- GI50 (SR): 9.71 µM (inactive)
- GI50 (MCF7): 20.6 µM (inactive)
- GI50 (KM12): > 50 µM (inactive)
- GI50 (SNB-75): > 50 µM (inactive)
- GI50 (M14): 43.7 µM (inactive)
- GI50 (ACHN): > 50 µM (inactive)
- GI50 (SN12C): 41 µM (inactive)
- GI50 (NCI/ADR-RES): 37.7 µM (inactive)
- GI50 (U-251): 19 µM (inactive)
- GI50 (HOP-92): > 50 µM (inactive)
- GI50 (A498): > 50 µM (inactive)
- GI50 (COLO 205): > 50 µM (inactive)
- GI50 (SNB-19): > 50 µM (inactive)
- GI50 (NCI-H23): 27.1 µM (inactive)
- GI50 (EKVX): 26.7 µM (inactive)

Compound: N=c1n(CC(=O)NC23CC4CC(CC(C4)C2)C3)c2ccccc2n1CC(=O)NC12CC3CC(CC(C3)C1)C2
- GI50 (NCI-H460): 1.78 µM (inactive)
- GI50 (SK-MEL-5): 1.82 µM (inactive)
- GI50 (SR): 1.87 µM (inactive)
- GI50 (KM12): 1.61 µM (inactive)
- GI50 (SNB-75): 2.29 µM (inactive)
- GI50 (M14): 1.96 µM (inactive)
- GI50 (ACHN): 2 µM (inactive)
- GI50 (SN12C): 1.87 µM (inactive)
- GI50 (U-251): 1.66 µM (inactive)
- GI50 (HOP-92): 1.65 µM (inactive)
- GI50 (A498): 1.7 µM (inactive)
- GI50 (COLO 205): 1.89 µM (inactive)
- GI50 (SNB-19): 1.66 µM (inactive)
- GI50 (NCI-H23): 1.74 µM (inactive)
- GI50 (EKVX): 2.26 µM (inactive)
- GI50 (LOX IMVI): 1.63 µM (inactive)

Compound: COc1cc(C2c3cc4c(cc3[C@@H](Nc3ccc(N(C)C)cc3)[C@H]3COC(=O)C23)OCO4)cc(OC)c1O (some centres undefined)
- GI50 (NCI-H460): 0.0214 µM (active)
- GI50 (SK-MEL-5): 0.873 µM (active)
- GI50 (SR): 0.0127 µM (active)
- GI50 (KM12): 1.24 µM (inactive)
- GI50 (SNB-75): 0.324 µM (active)
- GI50 (M14): 0.327 µM (active)
- GI50 (ACHN): 0.049 µM (active)
- GI50 (SN12C): 0.34 µM (active)
- GI50 (U-251): 0.149 µM (active)
- GI50 (HOP-92): 0.36 µM (active)
- GI50 (A498): 0.551 µM (active)
- GI50 (COLO 205): 1.85 µM (inactive)
- GI50 (SNB-19): 0.273 µM (active)
- GI50 (NCI-H23): 0.189 µM (active)
- GI50 (EKVX): 0.456 µM (active)
- GI50 (LOX IMVI): 0.817 µM (active)

Compound: Cc1cccc(O)c(=O)c1
- GI50 (NCI-H460): 31.7 µM (inactive)
- GI50 (SK-MEL-5): 28.1 µM (inactive)
- GI50 (SR): 15.2 µM (inactive)
- GI50 (KM12): 20.3 µM (inactive)
- GI50 (SNB-75): 83.6 µM (inactive)
- GI50 (M14): 31.8 µM (inactive)
- GI50 (ACHN): 31.7 µM (inactive)
- GI50 (SN12C): 37.8 µM (inactive)
- GI50 (U-251): 21.4 µM (inactive)
- GI50 (HOP-92): 89.3 µM (inactive)
- GI50 (A498): 54 µM (inactive)
- GI50 (COLO 205): 6.24 µM (inactive)
- GI50 (SNB-19): 92.9 µM (inactive)
- GI50 (EKVX): 23.6 µM (inactive)
- GI50 (LOX IMVI): 7.03 µM (inactive)

Compound: CC(=O)OCC1OC(n2cccnc2=O)C(OC(C)=O)C1OC(C)=O (centres undefined)
- GI50 (NCI-H460): > 100 µM (inactive)
- GI50 (SK-MEL-5): > 100 µM (inactive)
- GI50 (SR): > 100 µM (inactive)
- GI50 (KM12): > 100 µM (inactive)
- GI50 (SNB-75): > 100 µM (inactive)
- GI50 (M14): > 100 µM (inactive)
- GI50 (ACHN): > 100 µM (inactive)
- GI50 (SN12C): > 100 µM (inactive)
- GI50 (U-251): > 100 µM (inactive)
- GI50 (HOP-92): > 100 µM (inactive)
- GI50 (A498): > 100 µM (inactive)
- GI50 (COLO 205): > 100 µM (inactive)
- GI50 (SNB-19): > 100 µM (inactive)
- GI50 (EKVX): > 100 µM (inactive)
- GI50 (LOX IMVI): > 100 µM (inactive)
